According to ChEMBL document CHEMBL3885861, “Open TG-GATES”:

Organism: Rattus norvegicus
Test: Open TG-GATES - Regimen: Single
Type: toxicity, organism-based, Sprague-Dawley
Parameters: regimen Single, gender Male, age 6 weeks
Conditions: in vivo, po, route gavage; for APTT / Bas / Eos / Fbg / Hb / Ht / Lym / MCH / MCHC / MCV / Mono / Neu / PT / Plat / RBC / Ret / WBC: tissue Blood; for KIDNEY_L / KIDNEY_R / KIDNEY_TOTAL: tissue Kidney; for LIVER: tissue Liver; for A/G / ALP / ALT / AST / BUN / CRE / Ca / Cl / DBIL / GLC / IP / K / LDH / Na / PL / RALB / TBIL / TC / TG / TP / gamma-GTP: tissue Plasma
[1] = 50 mg/kg, 3 h, dose level Middle
[2] = 50 mg/kg, 6 h, dose level Middle
[3] = 50 mg/kg, 9 h, dose level Middle
[4] = 50 mg/kg, 24 h, dose level Middle
[5] = 150 mg/kg, 3 h, dose level High
[6] = 150 mg/kg, 6 h, dose level High
[7] = 150 mg/kg, 9 h, dose level High
[8] = 150 mg/kg, 24 h, dose level High

## Nc1nc(N)c2nc(-c3ccccc3)c(N)nc2n1
[1]
  TERMINAL_BW: 214.5 g
  APTT: 16.6 s
  Bas: 0%
  Eos: 0.8%
  Fbg: 295.2 mg/dL
  Hb: 14.3 g/dL
  Ht: 43.1%
  Lym: 77%
  MCH: 21.2 pg
  MCHC: 33.2%
  MCV: 64 fL
  Mono: 3.4%
  Neu: 18.4%
  PT: 13.9 s
  Plat: 121.1 x10_4/uL
  RBC: 673.2 x10_4/ul
  Ret: 7%
  WBC: 86.9 x10_2/uL
  KIDNEY_L: 1 g
  KIDNEY_R: 1 g
  KIDNEY_TOTAL: 1.9 g
  LIVER: 9.5 g
  A/G: 0.9
  ALP: 1490.4 IU/L
  ALT: 42.4 IU/L
  AST: 73.2 IU/L
  BUN: 12.2 mg/dL
  CRE: 0.2 mg/dL
  Ca: 11 mg/dL
  Cl: 105.2 meq/L
  DBIL: 0.006 mg/dL
  GLC: 165 mg/dL
  IP: 8.7 mg/dL
  K: 4.7 meq/L
  LDH: 59.4 IU/L
  Na: 141.4 meq/L
  PL: 160.8 mg/dL
  RALB: 2.7 g/dL
  TBIL: 0.062 mg/dL
  TC: 90.6 mg/dL
  TG: 56.2 mg/dL
  TP: 5.7 g/dL
  gamma-GTP: 1.4 IU/L
[2]
  TERMINAL_BW: 207.3 g
  APTT: 16.9 s
  Bas: 0%
  Eos: 1%
  Fbg: 337 mg/dL
  Hb: 14.3 g/dL
  Ht: 43.5%
  Lym: 69.8%
  MCH: 20.9 pg
  MCHC: 32.9%
  MCV: 63.5 fL
  Mono: 2.2%
  Neu: 27%
  PT: 14.1 s
  Plat: 124.3 x10_4/uL
  RBC: 685.4 x10_4/ul
  Ret: 7.5%
  WBC: 81.3 x10_2/uL
  KIDNEY_L: 1 g
  KIDNEY_R: 1 g
  KIDNEY_TOTAL: 1.9 g
  LIVER: 9 g
  A/G: 1
  ALP: 1195.2 IU/L
  ALT: 35.2 IU/L
  AST: 72.4 IU/L
  BUN: 11.4 mg/dL
  CRE: 0.2 mg/dL
  Ca: 10.9 mg/dL
  Cl: 106.8 meq/L
  DBIL: 0.01 mg/dL
  GLC: 167.6 mg/dL
  IP: 9.1 mg/dL
  K: 5 meq/L
  LDH: 62.6 IU/L
  Na: 142.4 meq/L
  PL: 149.4 mg/dL
  RALB: 2.8 g/dL
  TBIL: 0.06 mg/dL
  TC: 81.2 mg/dL
  TG: 54 mg/dL
  TP: 5.6 g/dL
  gamma-GTP: 1 IU/L
[3]
  TERMINAL_BW: 208.4 g
  APTT: 18 s
  Bas: 0%
  Eos: 1%
  Fbg: 310.4 mg/dL
  Hb: 14.1 g/dL
  Ht: 42.6%
  Lym: 70.2%
  MCH: 20.9 pg
  MCHC: 33.1%
  MCV: 63 fL
  Mono: 2%
  Neu: 26%
  PT: 13.9 s
  Plat: 116.9 x10_4/uL
  RBC: 677 x10_4/ul
  Ret: 7.4%
  WBC: 88.1 x10_2/uL
  KIDNEY_L: 1 g
  KIDNEY_R: 1 g
  KIDNEY_TOTAL: 2 g
  LIVER: 8.5 g
  A/G: 0.9
  ALP: 1205.8 IU/L
  ALT: 37 IU/L
  AST: 72 IU/L
  BUN: 11.4 mg/dL
  CRE: 0.2 mg/dL
  Ca: 10.8 mg/dL
  Cl: 105.8 meq/L
  DBIL: 0.008 mg/dL
  GLC: 161.8 mg/dL
  IP: 10.6 mg/dL
  K: 4.6 meq/L
  LDH: 48.2 IU/L
  Na: 142.6 meq/L
  PL: 133.6 mg/dL
  RALB: 2.7 g/dL
  TBIL: 0.056 mg/dL
  TC: 74.2 mg/dL
  TG: 37.4 mg/dL
  TP: 5.6 g/dL
  gamma-GTP: 1.2 IU/L
[4]
  TERMINAL_BW: 227.4 g
  APTT: 16.3 s
  Bas: 0%
  Eos: 1%
  Fbg: 314.2 mg/dL
  Hb: 14.1 g/dL
  Ht: 42%
  Lym: 79.8%
  MCH: 22 pg
  MCHC: 33.5%
  MCV: 65.5 fL
  Mono: 2.4%
  Neu: 16.6%
  PT: 13.9 s
  Plat: 130 x10_4/uL
  RBC: 642 x10_4/ul
  Ret: 7.4%
  WBC: 86.7 x10_2/uL
  KIDNEY_L: 1 g
  KIDNEY_R: 1 g
  KIDNEY_TOTAL: 2 g
  LIVER: 10.9 g
  A/G: 0.9
  ALP: 1815 IU/L
  ALT: 47 IU/L
  AST: 67.4 IU/L
  BUN: 16.2 mg/dL
  CRE: 0.2 mg/dL
  Ca: 11.3 mg/dL
  Cl: 105.8 meq/L
  DBIL: 0.01 mg/dL
  GLC: 179.8 mg/dL
  IP: 8.2 mg/dL
  K: 4 meq/L
  LDH: 60.6 IU/L
  Na: 144.2 meq/L
  PL: 155.4 mg/dL
  RALB: 2.7 g/dL
  TBIL: 0.04 mg/dL
  TC: 81 mg/dL
  TG: 92 mg/dL
  TP: 5.5 g/dL
  gamma-GTP: 1 IU/L
[5]
  TERMINAL_BW: 213.5 g
  APTT: 17.4 s
  Bas: 0.4%
  Eos: 0.8%
  Fbg: 303.6 mg/dL
  Hb: 14.2 g/dL
  Ht: 42.4%
  Lym: 77.2%
  MCH: 21.3 pg
  MCHC: 33.4%
  MCV: 63.7 fL
  Mono: 3.2%
  Neu: 17.6%
  PT: 14 s
  Plat: 128.5 x10_4/uL
  RBC: 666 x10_4/ul
  Ret: 7.5%
  WBC: 118.9 x10_2/uL
  KIDNEY_L: 1 g
  KIDNEY_R: 1 g
  KIDNEY_TOTAL: 2 g
  LIVER: 9.5 g
  A/G: 1
  ALP: 1286.4 IU/L
  ALT: 36.6 IU/L
  AST: 71 IU/L
  BUN: 12.8 mg/dL
  CRE: 0.2 mg/dL
  Ca: 10.8 mg/dL
  Cl: 105.8 meq/L
  DBIL: 0.01 mg/dL
  GLC: 166.4 mg/dL
  IP: 8.6 mg/dL
  K: 5.2 meq/L
  LDH: 56.2 IU/L
  Na: 141 meq/L
  PL: 142.6 mg/dL
  RALB: 2.7 g/dL
  TBIL: 0.06 mg/dL
  TC: 77.6 mg/dL
  TG: 67.2 mg/dL
  TP: 5.5 g/dL
  gamma-GTP: 1 IU/L
[6]
  TERMINAL_BW: 206.9 g
  APTT: 17.1 s
  Bas: 0%
  Eos: 1%
  Fbg: 349 mg/dL
  Hb: 14.4 g/dL
  Ht: 43.7%
  Lym: 74.4%
  MCH: 20.9 pg
  MCHC: 33%
  MCV: 63.3 fL
  Mono: 2.8%
  Neu: 20.8%
  PT: 13.9 s
  Plat: 123.5 x10_4/uL
  RBC: 690.6 x10_4/ul
  Ret: 7.5%
  WBC: 94.4 x10_2/uL
  KIDNEY_L: 1 g
  KIDNEY_R: 1 g
  KIDNEY_TOTAL: 1.9 g
  LIVER: 9.1 g
  A/G: 1
  ALP: 1417.8 IU/L
  ALT: 37.8 IU/L
  AST: 76.6 IU/L
  BUN: 11.8 mg/dL
  CRE: 0.2 mg/dL
  Ca: 10.9 mg/dL
  Cl: 105.8 meq/L
  DBIL: 0.01 mg/dL
  GLC: 169.6 mg/dL
  IP: 9.4 mg/dL
  K: 5.3 meq/L
  LDH: 65.2 IU/L
  Na: 140 meq/L
  PL: 150.6 mg/dL
  RALB: 2.8 g/dL
  TBIL: 0.058 mg/dL
  TC: 80.8 mg/dL
  TG: 55.6 mg/dL
  TP: 5.8 g/dL
  gamma-GTP: 1 IU/L
[7]
  TERMINAL_BW: 205.8 g
  APTT: 17.3 s
  Bas: 0.2%
  Eos: 1%
  Fbg: 347 mg/dL
  Hb: 14.4 g/dL
  Ht: 43.5%
  Lym: 71.4%
  MCH: 20.9 pg
  MCHC: 33.1%
  MCV: 63.1 fL
  Mono: 2.2%
  Neu: 25%
  PT: 13.9 s
  Plat: 118.6 x10_4/uL
  RBC: 689.4 x10_4/ul
  Ret: 7.6%
  WBC: 77.8 x10_2/uL
  KIDNEY_L: 1 g
  KIDNEY_R: 1 g
  KIDNEY_TOTAL: 2 g
  LIVER: 8.3 g
  A/G: 1
  ALP: 1443.6 IU/L
  ALT: 35.2 IU/L
  AST: 73.4 IU/L
  BUN: 12.6 mg/dL
  CRE: 0.2 mg/dL
  Ca: 11.1 mg/dL
  Cl: 105.4 meq/L
  DBIL: 0.01 mg/dL
  GLC: 165.2 mg/dL
  IP: 10.6 mg/dL
  K: 5 meq/L
  LDH: 57.8 IU/L
  Na: 141.4 meq/L
  PL: 139 mg/dL
  RALB: 2.9 g/dL
  TBIL: 0.066 mg/dL
  TC: 79.4 mg/dL
  TG: 30.2 mg/dL
  TP: 5.9 g/dL
  gamma-GTP: 1.2 IU/L
[8]
  TERMINAL_BW: 222.9 g
  APTT: 17.6 s
  Bas: 0.2%
  Eos: 0.8%
  Fbg: 366.6 mg/dL
  Hb: 14.4 g/dL
  Ht: 42.7%
  Lym: 80.8%
  MCH: 21.7 pg
  MCHC: 33.7%
  MCV: 64.4 fL
  Mono: 2.4%
  Neu: 15.4%
  PT: 13.7 s
  Plat: 121.5 x10_4/uL
  RBC: 662.8 x10_4/ul
  Ret: 6.2%
  WBC: 84.4 x10_2/uL
  KIDNEY_L: 1 g
  KIDNEY_R: 1 g
  KIDNEY_TOTAL: 2 g
  LIVER: 10.2 g
  A/G: 0.9
  ALP: 1697.4 IU/L
  ALT: 43 IU/L
  AST: 67.4 IU/L
  BUN: 18 mg/dL
  CRE: 0.2 mg/dL
  Ca: 11.2 mg/dL
  Cl: 106.2 meq/L
  DBIL: 0.01 mg/dL
  GLC: 175.4 mg/dL
  IP: 8.4 mg/dL
  K: 4.4 meq/L
  LDH: 66.6 IU/L
  Na: 143.8 meq/L
  PL: 158 mg/dL
  RALB: 2.7 g/dL
  TBIL: 0.038 mg/dL
  TC: 85.2 mg/dL
  TG: 96.6 mg/dL
  TP: 5.6 g/dL
  gamma-GTP: 1 IU/L
